What follows are compounds tested against T1, PI3Kδ (Homo sapiens, UniProt O00329) (assay: PI3Kδ Alphascreen assay).
T1 construct: Full length p110 subunits of PI3k α, β and δ, N-terminally labeled with polyHis tag; polyHis (N); made in house; host or cells: Sf9 insect cells (baculovirus)
Format: biochemical

T1 sequence (O00329 whole entry): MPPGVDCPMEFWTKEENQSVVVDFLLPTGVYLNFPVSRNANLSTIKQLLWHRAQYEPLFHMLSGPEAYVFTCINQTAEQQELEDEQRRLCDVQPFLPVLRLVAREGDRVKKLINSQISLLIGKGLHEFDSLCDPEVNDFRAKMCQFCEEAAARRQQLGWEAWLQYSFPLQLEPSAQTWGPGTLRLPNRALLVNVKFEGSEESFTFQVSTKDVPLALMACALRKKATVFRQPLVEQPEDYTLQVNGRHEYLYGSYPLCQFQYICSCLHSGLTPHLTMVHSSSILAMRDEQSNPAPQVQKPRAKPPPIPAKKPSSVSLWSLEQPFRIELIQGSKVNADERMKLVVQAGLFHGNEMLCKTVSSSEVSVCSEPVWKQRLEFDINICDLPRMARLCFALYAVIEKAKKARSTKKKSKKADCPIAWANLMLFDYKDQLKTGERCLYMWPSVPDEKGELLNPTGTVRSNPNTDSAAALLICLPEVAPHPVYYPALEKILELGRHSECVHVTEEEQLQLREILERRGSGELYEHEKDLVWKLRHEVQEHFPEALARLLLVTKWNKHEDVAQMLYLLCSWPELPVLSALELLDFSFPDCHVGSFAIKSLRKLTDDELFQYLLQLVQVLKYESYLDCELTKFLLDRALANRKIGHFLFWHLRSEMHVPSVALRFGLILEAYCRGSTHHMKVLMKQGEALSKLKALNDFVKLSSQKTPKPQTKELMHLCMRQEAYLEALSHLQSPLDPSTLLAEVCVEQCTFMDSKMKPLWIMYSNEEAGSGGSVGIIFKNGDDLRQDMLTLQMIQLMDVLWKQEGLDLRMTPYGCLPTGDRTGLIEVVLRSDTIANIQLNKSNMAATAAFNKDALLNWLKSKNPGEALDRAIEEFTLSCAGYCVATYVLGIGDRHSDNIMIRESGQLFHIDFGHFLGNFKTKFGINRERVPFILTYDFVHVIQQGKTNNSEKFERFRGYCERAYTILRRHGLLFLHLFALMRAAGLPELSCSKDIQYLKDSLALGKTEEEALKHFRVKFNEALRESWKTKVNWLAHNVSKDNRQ
T1 sequence (P27986 whole entry partner): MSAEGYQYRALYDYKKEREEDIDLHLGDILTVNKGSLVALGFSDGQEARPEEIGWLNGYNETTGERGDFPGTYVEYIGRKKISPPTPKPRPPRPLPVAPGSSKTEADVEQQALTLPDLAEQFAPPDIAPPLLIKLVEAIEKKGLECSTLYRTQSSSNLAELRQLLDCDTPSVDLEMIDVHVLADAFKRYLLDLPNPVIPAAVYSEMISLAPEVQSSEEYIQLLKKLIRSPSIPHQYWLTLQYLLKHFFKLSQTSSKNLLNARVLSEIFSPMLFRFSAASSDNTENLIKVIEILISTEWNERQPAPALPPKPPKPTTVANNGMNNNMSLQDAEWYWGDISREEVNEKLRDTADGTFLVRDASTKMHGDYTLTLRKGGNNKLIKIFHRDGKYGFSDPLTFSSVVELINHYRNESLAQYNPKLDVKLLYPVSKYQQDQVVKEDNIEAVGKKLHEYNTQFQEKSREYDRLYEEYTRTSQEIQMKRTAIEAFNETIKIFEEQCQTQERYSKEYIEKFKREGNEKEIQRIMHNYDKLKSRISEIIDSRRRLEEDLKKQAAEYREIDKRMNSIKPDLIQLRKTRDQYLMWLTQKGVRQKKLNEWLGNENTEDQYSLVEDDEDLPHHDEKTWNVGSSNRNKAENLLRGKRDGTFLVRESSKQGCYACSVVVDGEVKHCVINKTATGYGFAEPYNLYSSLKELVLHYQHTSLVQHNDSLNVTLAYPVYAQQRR

| Ki [µM] | SMILES |
| --- | --- |
| 0.00797 | Cc1c(-c2ccccn2)nc2cc(F)cc(F)c2c1Nc1cc(C#N)cc(N2CCOCC2)c1 [3-((5,7-difluoro-3-methyl-2-(2-pyridinyl)-4-quinolinyl)amino)-5-(4-morpholinyl)benzonitrile] |
| 0.00272 | COc1ccc(-c2ccc(N3CCOCC3)cc2Nc2c(C)c(-c3ccccc3S(C)(=O)=O)nc3cc(F)cc(F)c23)cn1 [5,7-difluoro-N-(2-(6-methoxy-3-pyridinyl)-5-(4-morpholinyl)-phenyl)-3-methyl-2-(2-(methylsulfonyl)phenyl)-4-quinolinamine] |
| 0.00787 | COc1cncc(-c2cc(C#N)c(N3CCOCC3)cc2Nc2c(C)c(-c3ccccn3)nc3cc(F)cc(F)c23)c1 [4-((5,7-difluoro-3-methyl-2-(2-pyridinyl)-4-quinolinyl)amino)-5-(5-methoxy-3-pyridinyl)-2-(4-morpholinyl)benzonitrile] |
| 0.0086 | Cc1c(-c2cccc3c2cnn3C)nc2cc(F)cc(F)c2c1Nc1cc(N2CCOCC2)cnc1N1CCOCC1 [N-(2,5-di-4-morpholinyl-3-pyridinyl)-5,7-difluoro-3-methyl-2-(1-methyl-1H-indazol-4-yl)-4-quinolinamine] |
| 0.0386 | Cc1c(N2CC(C)(C)CCC2=O)nc2cc(F)cc(F)c2c1Nc1cncc(N2CCOCC2)c1 [1-(5,7-difluoro-3-methyl-4-((5-(4-morpholinyl)-3-pyridinyl)-amino)-2-quinolinyl)-5,5-dimethyl-2-piperidinone] |
| 0.00901 | COc1cncc(-c2ncc(N3CCOCC3)cc2Nc2c(C)c(-c3cc(C)ccn3)nc3c(Cl)cccc23)c1 [N-(8-chloro-3-methyl-2-(4-methyl-2-pyridinyl)-4-quinolinyl)-5′-methoxy-5-(4-morpholinyl)-2,3′-bipyridin-3-amine] |
| 0.295 | Cc1c(-c2ccc(N3CCN(C)CC3)nc2)nc2cc(F)cc(F)c2c1Nc1cc(N2CCOCC2)cnc1N1CCOCC1 [N-(2,5-di-4-morpholinyl-3-pyridinyl)-5,7-difluoro-3-methyl-2-(6-(4-methyl-1-piperazinyl)-3-pyridinyl)-4-quinolinamine] |
| 0.0782 | Cc1ccc(C(=O)N2CCN(c3nc4cc(F)cc(F)c4c(Nc4cncc(N5CCOCC5)c4)c3C)CC2)o1 [5,7-difluoro-3-methyl-2-(4-((5-methyl-2-furanyl)carbonyl)-1-piperazinyl)-N-(5-(4-morpholinyl)-3-pyridinyl)-4-quinolinamine] |
| 0.000512 | COc1cncc(-c2ncc(N3CCOCC3)cc2Nc2c(C)c(-c3ccccn3)nc3cc(F)cc(F)c23)c1 [N-(5,7-difluoro-3-methyl-2-(2-pyridinyl)-4-quinolinyl)-5′-methoxy-5-(4-morpholinyl)-2,3′-bipyridin-3-amine] |
| 0.0573 | Cc1ccnc(-c2nc3c(C#N)cccc3c(Nc3cncc(N4CCOCC4)c3)c2C)c1 [3-methyl-2-(4-methyl-2-pyridinyl)-4-((5-(4-morpholinyl)-3-pyridinyl)amino)-8-quinolinecarbonitrile] |
| 0.00534 | Cc1ccnc(-c2nc3cc(F)cc(F)c3c(Nc3cncc(-c4ccnc(N)n4)c3)c2C)c1 [N-(5-(2-amino-4-pyrimidinyl)-3-pyridinyl)-5,7-difluoro-3-methyl-2-(4-methyl-2-pyridinyl)-4-quinolinamine] |
| 0.00318 | COc1ccc(-c2ncc(N3CCOCC3)cc2Nc2c(C)c(-c3cc(C)ccn3)nc3cc(F)cc(F)c23)cn1 [N-(5,7-difluoro-3-methyl-2-(4-methyl-2-pyridinyl)-4-quinolinyl)-6′-methoxy-5-(4-morpholinyl)-2,3′-bipyridin-3-amine] |
| 0.0781 | Cc1c(N2CCN(c3ccccc3)CC2)nc2cc(F)cc(F)c2c1Nc1cncc(N2CCOCC2)c1 [5,7-difluoro-3-methyl-N-(5-(4-morpholinyl)-3-pyridinyl)-2-(4-phenyl-1-piperazinyl)-4-quinolinamine] |
| 0.0112 | Cc1c(-c2cncc(Cl)c2)nc2cc(F)cc(F)c2c1Nc1cc(N2CCOCC2)cnc1N1CCOCC1 [2-(5-chloro-3-pyridinyl)-N-(2,5-di-4-morpholinyl-3-pyridinyl)-5,7-difluoro-3-methyl-4-quinolinamine] |
| 0.484 | Cc1c(-c2ccccn2)nc2cc(F)cc(F)c2c1Nc1ccc(C#N)c(N2CCOCC2)c1 [4-((5,7-difluoro-3-methyl-2-(2-pyridinyl)-4-quinolinyl)amino)-2-(4-morpholinyl)benzonitrile] |
| 0.0318 | COC(=O)N1CCN(c2nc3cc(F)cc(F)c3c(Nc3cncc(N4CCOCC4)c3)c2C)[C@H](C)C1 [methyl (3R)-4-(5,7-difluoro-3-methyl-4-((5-(4-morpholinyl)-3-pyridinyl)amino)-2-quinolinyl)-3-methyl-1-piperazinecarboxylate] |
| 0.134 | Cc1c(-c2ccc(N3CCC(C)CC3)nc2)nc2cc(F)cc(F)c2c1Nc1cc(N2CCOCC2)cnc1N1CCOCC1 [N-(2,5-di-4-morpholinyl-3-pyridinyl)-5,7-difluoro-3-methyl-2-(6-(4-methyl-1-piperidinyl)-3-pyridinyl)-4-quinolinamine] |
| 0.00262 | CCOc1ccc(-c2ncc(N3CCOCC3)cc2Nc2c(C)c(-c3ccccn3)nc3cc(F)cc(F)c23)cn1 [N-(5,7-difluoro-3-methyl-2-(2-pyridinyl)-4-quinolinyl)-6′-ethoxy-5-(4-morpholinyl)-2,3′-bipyridin-3-amine] |

| Ki [µM] | SMILES |
| --- | --- |
| 0.0838 | Cc1c(-c2cncc(S(C)(=O)=O)c2)nc2cc(F)cc(F)c2c1Nc1cc(N2CCOCC2)cnc1N1CCOCC1 [N-(2,5-di-4-morpholinyl-3-pyridinyl)-5,7-difluoro-3-methyl-2-(5-(methylsulfonyl)-3-pyridinyl)-4-quinolinamine] |
| 0.0611 | Cc1c(N2CCN(S(=O)(=O)c3cccc(F)c3)CC2)nc2cc(F)cc(F)c2c1Nc1cncc(N2CCOCC2)c1 [5,7-difluoro-2-(4-((3-fluorophenyl)sulfonyl)-1-piperazinyl)-3-methyl-N-(5-(4-morpholinyl)-3-pyridinyl)-4-quinolinamine] |
| 0.353 | Cc1c(N2CCN(C(=O)OC(C)(C)C)CC2)nc2cc(F)cc(F)c2c1Nc1cncc(N2CCOCC2)c1 [tert-butyl 4-(5,7-difluoro-3-methyl-4-((5-(4-morpholinyl)-3-pyridinyl)amino)-2-quinolinyl)-1-piperazinecarboxylate] |
| 0.0334 | COc1cc(-c2nc3cc(F)cc(F)c3c(Nc3cc(N4CCOCC4)cnc3N3CCOCC3)c2C)ccn1 [N-(2,5-di-4-morpholinyl-3-pyridinyl)-5,7-difluoro-2-(2-methoxy-4-pyridinyl)-3-methyl-4-quinolinamine] |
| 0.358 | Cc1c(N2CCN(C(=O)OC(C)(C)C)C[C@@H]2C)nc2cc(F)cc(F)c2c1Nc1cncc(N2CCOCC2)c1 [tert-butyl (3S)-4-(5,7-difluoro-3-methyl-4-((5-(4-morpholinyl)-3-pyridinyl)amino)-2-quinolinyl)-3-methyl-1-piperazinecarboxylate] |
| 0.0695 | Cc1c(-c2cccnc2)nc2cc(F)cc(F)c2c1Nc1cc(N2CCOC[C@H]2C)cnc1N1CCOCC1 [5,7-difluoro-3-methyl-N-(5-((3R)-3-methyl-4-morpholinyl)-2-(4-morpholinyl)-3-pyridinyl)-2-(3-pyridinyl)-4-quinolinamine] |
| 0.000972 | COc1cc(C)c(-c2ncc(N3CCOCC3)cc2Nc2c(C)c(-c3ccccn3)nc3cc(F)cc(F)c23)c(C)c1 [5,7-difluoro-N-(2-(4-methoxy-2,6-dimethylphenyl)-5-(4-morpholinyl)-3-pyridinyl)-3-methyl-2-(2-pyridinyl)-4-quinolinamine] |
| 0.00551 | Cc1c(-c2ccccn2)nc2cc(F)cc(F)c2c1Nc1cc(N2CCOCC2)cnc1-c1ccc(C#N)cc1 [4-(3-((5,7-difluoro-3-methyl-2-(2-pyridinyl)-4-quinolinyl)-amino)-5-(4-morpholinyl)-2-pyridinyl)benzonitrile] |
| 0.0144 | Cc1ccnc(-c2nc3cc(F)cc(F)c3c(Nc3cncc(C4=CCOCC4)c3)c2C)c1 [N-(5-(3,6-dihydro-2H-pyran-4-yl)-3-pyridinyl)-5,7-difluoro-3-methyl-2-(4-methyl-2-pyridinyl)-4-quinolinamine] |
| 0.000827 | Cc1c(-c2ccccc2S(C)(=O)=O)nc2cc(F)cc(F)c2c1Nc1cc(N2CCOCC2)ccc1S(C)(=O)=O [5,7-difluoro-3-methyl-N-(2-(methylsulfonyl)-5-(4-morpholinyl)-phenyl)-2-(2-(methylsulfonyl)phenyl)-4-quinolinamine] |
| 0.582 | Cc1c(-c2cc(F)cc(F)c2)nc2ncccc2c1Nc1cc(N2CCOCC2)ccc1N1CCOCC1 [2-(3,5-difluorophenyl)-N-(2,5-di-4-morpholinylphenyl)-3-methyl-1,8-naphthyridin-4-amine] |
| 0.00308 | Cc1c(-c2ccccn2)nc2cc(F)cc(F)c2c1Nc1cc(C2=CCOCC2)cnc1C1=CCOCC1 [N-(2,5-di-3,6-dihydro-2H-pyran-4-yl-3-pyridinyl)-5,7-difluoro-3-methyl-2-(2-pyridinyl)-4-quinolinamine] |
| 0.0145 | Cc1c(N2CCN(C(=O)c3cocn3)CC2)nc2cc(F)cc(F)c2c1Nc1cncc(N2CCOCC2)c1 [5,7-difluoro-3-methyl-N-(5-(4-morpholinyl)-3-pyridinyl)-2-(4-(1,3-oxazol-4-ylcarbonyl)-1-piperazinyl)-4-quinolinamine] |
| 0.716 | Cc1c(-c2ccccn2)nc2ncccc2c1Nc1cncc(N2CCOCC2)c1 [3-methyl-N-(5-(4-morpholinyl)-3-pyridinyl)-2-(2-pyridinyl)-1,8-naphthyridin-4-amine] |
| 0.18 | Cc1c(-c2ccc(N(C)C)nc2)nc2cc(F)cc(F)c2c1Nc1cncc(N2CCOCC2)c1 [2-(6-(dimethylamino)-3-pyridinyl)-5,7-difluoro-3-methyl-N-(5-(4-morpholinyl)-3-pyridinyl)-4-quinolinamine] |
| 0.000627 | COc1cncc(-c2ccc(N3CCOCC3)cc2Nc2c(C)c(-c3ccccn3)nc3cc(F)cc(F)c23)c1 [5,7-difluoro-N-(2-(5-methoxy-3-pyridinyl)-5-(4-morpholinyl)-phenyl)-3-methyl-2-(2-pyridinyl)-4-quinolinamine] |
| 0.432 | Cc1c(-c2ccc(N3CCNCC3)nc2)nc2cc(F)cc(F)c2c1Nc1cncc(N2CCOCC2)c1 [5,7-difluoro-3-methyl-N-(5-(4-morpholinyl)-3-pyridinyl)-2-(6-(1-piperazinyl)-3-pyridinyl)-4-quinolinamine] |

Source: patent publication US8940724B2, “Quinoline derivitives and their uses” (Amgen Inc., priority 2009, dated 2015)
